# In patent US8785447B2, “Use of dopamine D3 receptor ligands for the production of drugs for treating renal function disorders” (AbbVie Deutschland GmbH & Co. KG, priority 2000, dated 2014):
# Experiments:
# Format in all cases: in vivo, male Sprague-Dawley rats
# [1] = system: animal experimental model of diabetic nephropathy (rats with streptozotocin-induced diabetes mellitus); assay: Clearance investigation (renal 3H-inulin clearance, GFR) in anesthetized streptozotocin-diabetic rats; settings: for glomerular filtration rate (GFR): anesthetized diabetic rats after 14 to 16 days, 3H-inulin clearance, S-sulpiride 25 mg/kg/d, D3-A 5 mg/kg/d, untreated diabetic 1.10 vs. time control 0.83
# Procedure: (§1) The action of the dopamine D3 antagonists was investigated in an animal experimental model of diabetic nephropathy. Rats in which diabetes mellitus had been induced by administration of streptozotocin developed marked glomerular hyperfiltration within 14 days.
# (§2) 60 mg/kg of streptozotocin, dissolved in citrate buffer (21 mg of citric acid per 1 ml of double-distilled water), were injected intraperitoneally into male Sprague-Dawley rats having a body weight of 180 to 200 g. Diabetes mellitus was regarded as being induced successfully when an evening glucose concentration of at least 180 mg/dl was found in the venous blood after 24 hours. The blood glucose values of the diabetic animals were between 350 and 450 mg/dl. Insulin substitution was thus not necessary. The body weight of the experimental animals increased about 5 g per day. The same volume of citrate buffer was injected intraperitoneally into nondiabetic time control animals (CON). They had blood glucose values of between 90 and 1120 mg/dl.
# (§3) Immediately after successful determination of diabetes mellitus, the animals were accommodated in normal cages with standard feed (Altromin 1320) and mains water ad libitum. By means of different medicinal treatment (administration of the substances via the drinking water), the following four experimental groups were formed: • CON (1) nondiabetic animals without additional treatment (time control) • DM-VHC (2) diabetic animals without additional treatment (diabetic control) • DM-SUL (3) diabetic animals with S-sulpiride treatment (25 mg/kg/d) • DM-D3 (4) diabetic animals with D3-A treatment (D3-A1: D3 receptor antagonist according to Example (7) (5 mg/kg/d); D3-A2: D3 receptor antagonist according to Example (11))
# (§4) The volume of liquid absorbed was recorded daily. Every third day, the body weight and the blood glucose level of the animals were determined. After 12 days, the experimental animals were kept in metabolic cages for 24 hours for urine collection. The protein concentration in the urine was determined according to the standard method described by Lowry. For this, after incubation of the samples with 1 M NaOH a color reaction was induced with Folin reagent (phenol-Ciocalteu's), whose intensity was quantified photometrically. The albumin concentration in the urine was determined by a radioimmunoassay (RIA) specific for albumin. A kit from Biermann (KHAD 2: albumin RIA), was employed which used a polyclonal antibody against human serum albumin (goat) and ^125I-labeled human serum albumin as a tracer. After 14 to 16 days, the animals were anesthetized with thiopental (80 mg/kg) and polyethylene catheters were placed in the jugular vein and the carotid artery and also in the urinary bladder. The glomerular filtration rate (GFR) was determined by means of the renal ^3H-inulin clearance. The mean arterial blood pressure (MAP) and the heart rate (HR) were furthermore recorded during the experiment. At the end of the clearance experiments, the kidneys were removed and subjected to a histopathological examination.
# [2] = system: animal experimental model of diabetic nephropathy (rats with streptozotocin-induced diabetes mellitus); assay: Histopathological examination of the kidneys of streptozotocin-diabetic rats; settings: for structural intrarenal changes occurring in diabetic nephropathy: comparison of the treatment groups; for glomerular hypertrophy (enlargement of the glomeruli): mean of 20 microscopically measured areas, S-sulpiride 25 mg/kg/d, D3-A1 5 mg/kg/d
# Procedure: as §2, §3, §4
# [3] = system: animal experimental model of diabetic nephropathy (rats with streptozotocin-induced diabetes mellitus); assay: Kidney wet weight of streptozotocin-diabetic rats
# Procedure: as §2, with “[…]. […]” for “1120 mg/dl.”
# The volume of liquid absorbed was recorded daily. Every third day, the body weight and the blood glucose level of the animals were determined. […] The protein concentration in the urine was determined according to the standard method described by Lowry. For this, after incubation of the samples with 1 M NaOH a color reaction was induced with Folin reagent (phenol-Ciocalteu's), whose intensity was quantified photometrically. The albumin concentration in the urine was determined by a radioimmunoassay (RIA) specific for albumin. […] The glomerular filtration rate (GFR) was determined by means of the renal ^3H-inulin clearance. […]
# [4] = system: animal experimental model of diabetic nephropathy (rats with streptozotocin-induced diabetes mellitus); assay: 24-hour urine collection (protein by Lowry, albumin by RIA) in streptozotocin-diabetic rats; settings: for albuminuria / proteinuria: 24-hour urine of conscious diabetic rats after 12 days, via drinking water, S-sulpiride 25 mg/kg/d, D3-A1 5 mg/kg/d; for albuminuria: untreated diabetic 118 vs. time control 23; for proteinuria: untreated diabetic 133 vs. time control 46
# Procedure: as §1, §2, §3, §4
# [5] = diabetic rats, subchronic treatment, 30 mg/kg body weight per day
# [6] = diabetic rats, subchronic treatment
Structure (SMILES),"diabetes-induced renal hyperperfusion [1, 5]","glomerular hyperfiltration [1, 5]",structural intrarenal changes occurring in diabetic nephropathy [2],"kidney wet weight ([3]; diabetic rats treated with D3-A2, nondiabetic 0.9±0.1, DM-VHC 1.1+0.04)","incipient renal hypertrophy [3, 5]",albuminuria [4] [µg/day],proteinuria [4] [mg/day],glomerular filtration rate (GFR) [1] [mL/min],"renal hemodynamic changes in the course of diabetic nephropathy [1, 6]",glomerular hypertrophy (enlargement of the glomeruli) [2],"pathological protein and albumin excretion ([4]; diabetic rats, comparison of the treatment groups)"
"CC(C)(C)c1nc(N2CCN(CCCSc3nccc(O)n3)CC2)cc(C(F)(F)F)n1.O=C(O)/C=C/C(=O)O [Example 11, 2-(3-(4-(2-t-Butyl-6-trifluoromethyl)pyrimidin-4-yl)piperazin-1-yl)propylmercaptopyrimidin-4-ol fumarate]",distinctly reduced,distinctly reduced,abolished,0.96+0.03 g per 100 g body weight,distinct reduction,–,–,–,–,–,–
"CCN1CCC[C@H]1CNC(=O)c1cc(S(N)(=O)=O)ccc1OC [sulpiride, S-sulpiride, reference compound]",–,–,not,–,–,101,178,0.71,significant decrease,likewise to be observed,–
CC(=CCN1CCN(c2cc(C(F)(F)F)nc(C(C)(C)C)n2)CC1)CSc1nnc(N)n1C [Example 7],–,–,abolished,–,–,18,113,0.83,significant decrease,not,markedly reduced
